# Key:
# GSK-3β [1] = molecular target: T1, GSK-3β (Homo sapiens, UniProt P49841); experiment: GSK-3β kinetics, Lineweaver-Burk analysis of competition with ATP or substrate ULight-GS; format: biochemical; parameters: made in house; host or cells: Sf9 cells; details: compound 20 and 50 μM; for mechanism of inhibition with respect to substrate ULight-GS: ATP 1 μM, ULight-GS 12.5-200 nM; for mechanism of inhibition with respect to ATP: ATP 0.25-4 μM, ULight-GS 50 nM
# Procedure: First, under a constant concentration of the substrate ULight-GS (50 nM), ATP concentrations were varied from 0.25 to 4 μM, and G5 and G12 were tested at 20 and 50 μM. […] Additionally, G5 and G12 (at 20 and 50 μM) were tested by keeping the ATP concentration constant (1 μM) and varying the substrate ULight-GS concentration from 12.5 to 200 nM.
# To study the GSK-3β kinetics, the reaction mixture, varying concentrations of ATP (0.25–0.5–1–2–4 μM) or substrate (12.5–25–50–100–200 nM) versus test samples (20 and 50 μM), were incubated for 5, 15, 30, and 60 min at 23 °C, followed by the addition of the 6 mM EDTA and the anti-phospho-GS antibody according to the manufacturer’s protocol.
# For GSK-3β kinetic experiments, initial velocities (V0) were determined and fitted to the Michaelis–Menten equation. To directly visualize G5 and G12 inhibition mode, a Lineweaver–Burk plot was generated according to the values obtained from the Michaelis–Menten analysis. […] Graphs and data analysis were performed using GraphPad Prism 8 software.
# p70S6K = molecular target: T2, p70S6K (Homo sapiens, UniProt P23443); experiment: Eurofins Kinase Diversity Panel, p70S6K; format: biochemical; details: 20 µM compound; ATP at Km ± 15 µM; read-out: inhibitory effect on p70S6K
# T2 construct: purchased Eurofins (Kinase Diversity Panel service)
# T2 sequence (P23443 whole entry): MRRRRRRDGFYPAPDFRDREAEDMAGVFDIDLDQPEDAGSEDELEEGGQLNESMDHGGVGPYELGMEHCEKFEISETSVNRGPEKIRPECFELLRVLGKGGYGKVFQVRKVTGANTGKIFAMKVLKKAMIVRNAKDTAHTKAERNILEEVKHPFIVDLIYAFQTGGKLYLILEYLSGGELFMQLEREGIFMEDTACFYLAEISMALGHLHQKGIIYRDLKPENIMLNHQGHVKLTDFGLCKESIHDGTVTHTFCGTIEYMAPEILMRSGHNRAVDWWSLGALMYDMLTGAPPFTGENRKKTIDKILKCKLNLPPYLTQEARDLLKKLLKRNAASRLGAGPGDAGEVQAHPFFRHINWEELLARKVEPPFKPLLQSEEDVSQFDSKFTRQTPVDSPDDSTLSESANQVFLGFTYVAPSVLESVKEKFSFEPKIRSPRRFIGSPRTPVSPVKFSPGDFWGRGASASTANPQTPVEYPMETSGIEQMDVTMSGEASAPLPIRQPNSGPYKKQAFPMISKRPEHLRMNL
# Procedure: To further characterize the inhibitory activity of the two selected fragments, the selectivity of G5 and G12 towards a panel of 58 kinases of the humane proteome was evaluated using the “Kinase screening and profiling” service of Eurofins, Luxembourg (Kinase Diversity Panel). […] Results are reported in Supplementary Figures S2 and S3.
# GSK-3β [2] = molecular target: T1, GSK-3β; experiment: Thermal shift assay with SYPRO Orange; format: binding; parameters: made in house; host or cells: Sf9 cells; details: GSK-3β 5 μM; normalized to DMSO effect
# Procedure: Given the poor inhibitory activity of compounds B3 and E2, only G5 and G12 were selected for further biophysical and structural investigations. […] A Tm increase of 3.2 °C and 2.5 °C was observed upon binding of G5 and G12, respectively. Reported effects were compared and normalized to the effect induced by DMSO alone on GSK-3β denaturation. The same experiments were also performed in the presence of AMP-PNP to unravel a possible effect of this molecule on protein denaturation.
# Thermal shift experiments were conducted in technical triplicates and recorded with a ViiA7^TM real-time PCR instrument. The analysis protocol of Partch and colleagues developed for fast stability screening of buffers and interactors for recombinant proteins was followed, [42]. Briefly, the recombinant protein GSK-3β at a final concentration of 5 μM was mixed with the dye SYPRO Orange (2× final concentrated) in the selected assay buffer (NaCl 300 mM, Hepes pH 7.5 20 mM, MgCl2 5 mM, DTT 1 mM) and incubated with hit compounds at two different concentrations, 200 and 500 μM. Experiments were also performed on GSK-3β also in the presence of AMP-PNP at a final concentration of 200 μM. […]
# Output data were collected and analyzed with Excel software and Graphpad Prism 7.
# GSK-3β [3] = molecular target: T1, GSK-3β; experiment: MicroScale Thermophoresis (MST) binding to fluorescently labeled GSK-3β; parameters: made in house; host or cells: Sf9 cells; details: for MST binding check, displacement assay: preincubation with 3 mM AMP-PNP, data not shown
# Procedure: MicroScale Thermophoresis (MST) experiments were conducted in triplicate on a Monolith NT.115 Pico system (NanoTemper Technologies, Munich, Germany).
# The MST technique was used both for hit binding and for affinity (kd) determination.
# GSK-3β was labeled with the His-tag RED-tris-NTA label 2nd generation (Nanotemper Technologies) following Nanotemper technology protocol. The 100 nM stock labeled protein solution was used at 20 nM concentration to roughly start from 7000 fluorescence counts in each screening experiment.
# GSK-3β was labelled also using RED-NHS ammine dye (Nanotemper Technologies) following the manufacturer’s protocol. The obtained ammine-labeled protein was used at 20 nM concentration to roughly start the experiments from 6000 fluorescence counts.
# Binding tests were performed on eight capillaries with a constant concentration of the labeled protein (20 nM), to detect the effect induced by the compounds on the fluorescence signal (in the presence or absence of 3 mM AMP-PNP). Protein in assay buffer in the presence of 5% DMSO was the negative control.
# Assay buffer: Phosphate buffer 0.1 M pH 7.2, 5 mM MgCl2, 0.001% Tween80, 0.1% PEG8000. Experiments were performed in triplicates. Data elaboration and plots were performed using MO.Control Nanotemper software.
# T1 sequence (P49841 whole entry): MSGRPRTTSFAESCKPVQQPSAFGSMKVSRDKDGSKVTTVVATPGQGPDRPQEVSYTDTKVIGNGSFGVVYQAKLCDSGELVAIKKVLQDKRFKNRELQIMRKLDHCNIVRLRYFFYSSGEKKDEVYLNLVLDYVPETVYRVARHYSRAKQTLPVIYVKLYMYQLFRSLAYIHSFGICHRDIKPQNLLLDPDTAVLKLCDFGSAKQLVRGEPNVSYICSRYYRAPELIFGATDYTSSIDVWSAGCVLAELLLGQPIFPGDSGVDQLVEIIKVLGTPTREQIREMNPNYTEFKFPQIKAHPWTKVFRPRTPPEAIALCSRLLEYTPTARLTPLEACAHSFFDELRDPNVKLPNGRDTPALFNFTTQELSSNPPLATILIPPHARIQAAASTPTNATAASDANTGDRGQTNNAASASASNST
mechanism of inhibition with respect to substrate ULight-GS (GSK-3β [1]),mechanism of inhibition with respect to ATP (GSK-3β [1]),inhibition at 20 µM (p70S6K) [%],Tm increase upon binding (GSK-3β [2]) [°C],"MST binding check, displacement assay (GSK-3β [3])","Kd (GSK-3β [3]; complete binding curve, average of three experiments ± SD, read-out: affinity parameter (kd), MST) [µM]",SMILES
mixed competition mechanism,ATP competitive,26,3.2,maintained their ability to bind GSK-3β,–,CS(=O)(=O)N1CC(c2nc(N)ncc2-c2ccc(F)cc2)C1 [G5]
did not compete with the substrate,ATP competitive,15,2.5,maintained their ability to bind GSK-3β,66.5 ± 31.8,O=C(Nc1ccccn1)C1CCN(C(=O)CCc2ccccc2F)C1 (centres unmarked) [G12]
